The source of these data is patent US11318134B2, “Benzamide compounds” (priority 2018, dated 2022).

The subject of one test is RS4;11 cells. Nature of the test: RS4;11 cell proliferation assay (CellTiter-Glo). To be noted: Homo sapiens, RS4-11, 48 h, read-out: RS4;11 (nM), CTG IC50. In kind it is cell-based. The method, then: Cell proliferation was measured using the CellTiter-Glo® Luminescent Cell Viability Assay. The assay involved the addition of a single reagent (CellTiter-Glo® Reagent) directly to cells cultured in serum-supplemented medium.
Each compound evaluated was prepared as a DMSO stock solution (10 mM). Compounds were tested in duplicate on each plate, with a 10-point serial dilution curve (1:3 dilution). Compound treatment (1.0 μL) was added from the compound dilution plate to the cell plate. The highest compound concentration was 10 μM (final), with a 0.1% final DMSO concentration. Plates were then incubated at 37° C., 5% CO2. After 48 h of compound treatment for RS4;11 or 72 h for NCI-H1963, cell plates were equilibrated at rt for approximately 30 mins. An equi-volume amount of CellTiter-Glo® Reagent (40 μL) was added to each well. […] Luminescence was recorded using a Envision plate reader according to CellTiter-Glo protocol. IC50 of each compound was calculated using GraphPad Prism by nonlinear regression analysis.

The target of test [1] is T1, Bcl-XL (Homo sapiens (Human), UniProt Q07817). Nature of the test: Bcl-2 protein family binding assay (Bcl2scan platform), Bcl-XL. To be noted: BIM peptide ligand, 11-point dilution, read-out: Bc1-XL Kd (nm). The protocol: (§1) E. coli were grown to log-phase and infected with T7 phage from a frozen stock (multiplicity of infection=0.4) and incubated with shaking at 32° C. until lysis (90-150 minutes). The lysates were centrifuged (5,000×g) and filtered (0.2 μm) to remove cell debris. […] The liganded beads were blocked with excess biotin and washed with blocking buffer (SeaBlock (Pierce), 1% BSA, 0.05% Tween 20, 1 mM DTT) to remove unbound ligand and to reduce non-specific phage binding. […] Test compounds were prepared as 100× stocks in 100% DMSO. Kds were determined using an 11-point 3-fold compound dilution series with one DMSO control point. […] The compounds were then diluted directly into the assays such that the final concentration of DMSO was 0.9%. All reactions performed in polypropylene 384-well plates. Each was a final volume of 0.02 ml. […] The BCL2 concentration in the eluates was measured by qPCR. Binding constants (Kds) were calculated with a standard dose-response curve using the Hill equation:
(§2) [formula] The Hill Slope was set to −1. Curves were fitted using a non-linear least square fit with the Levenberg-Marquardt algorithm.

Test [2] has as its target T2, Bcl-2 (Homo sapiens (Human), UniProt P10415). As to the kind of experiment: Bcl-2 protein family binding assay (Bcl2scan platform), Bcl-2. The conditions noted are these: BIM peptide ligand, 11-point dilution, read-out: Bc1-2 Kd (nm). The protocol: as §1, §2
Test [3] addresses T1, Bcl-XL. As to the kind of experiment: Bcl-XL HTRF assay (FAM-Bad peptide). The conditions noted are these: HTRF, 3 nM Bcl-XL, 40 nM FAM-Bad peptide; read-out: Bc1-XL IC50. In kind it is binding.
In test [4] the target is T2, Bcl-2. As to the kind of experiment: Bcl-2 HTRF assay (FAM-Bak peptide). The conditions noted are these: HTRF, 4 nM Bcl-2, 100 nM FAM-Bak peptide; read-out: Bc1-2 IC50. The class given is binding.

A word on the Kd: it is a measure of binding affinity in units of concentration.

Where only a bound is given, the exact number is not on record here.

T1 sequence (Q07817 whole entry): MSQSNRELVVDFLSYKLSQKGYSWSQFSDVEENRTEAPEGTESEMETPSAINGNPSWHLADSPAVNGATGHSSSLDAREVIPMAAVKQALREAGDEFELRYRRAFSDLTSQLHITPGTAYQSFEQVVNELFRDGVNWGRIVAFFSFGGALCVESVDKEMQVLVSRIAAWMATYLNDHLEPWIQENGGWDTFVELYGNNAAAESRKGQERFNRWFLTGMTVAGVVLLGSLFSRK
T2 sequence (P10415 whole entry): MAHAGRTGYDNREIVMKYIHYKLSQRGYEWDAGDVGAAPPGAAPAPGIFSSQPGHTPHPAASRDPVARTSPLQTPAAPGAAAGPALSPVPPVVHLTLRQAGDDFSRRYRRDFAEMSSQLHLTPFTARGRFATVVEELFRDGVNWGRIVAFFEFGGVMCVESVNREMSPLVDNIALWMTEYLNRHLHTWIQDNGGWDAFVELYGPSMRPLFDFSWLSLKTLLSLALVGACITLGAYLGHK

As for `CC1(C)CCC(CN2CCN(c3ccc(C(=O)NS(=O)(=O)c4ccc(NCC5CCOCC5)c([N+](=O)[O-])c4)c(Oc4cnc5[nH]ccc5c4)c3)CC2)=C(C23CC(C(F)(F)F)(C2)C3)C1` [Example 28, 2-((1H-pyrrolo[2,3-b]pyridin-5-yl)oxy)-4-(4-((4,4-dimethyl-2-(3-(trifluoromethyl)bicyclo[1.1.1]pentan-1-yl)cyclohex-1-en-1-yl)methyl)piperazin-1-yl)-N-((3-nitro-4-(((tetrahydro-2H-pyran-4-yl)methyl)amino)phenyl)sulfonyl)benzamide], in the test on RS4;11 cells, the IC50 was < 100 nM. Also, the dissociation constant (Kd) at Bcl-XL [1] is > 100 nM; at Bcl-2 [2], < 10 nM.

On to `CC1(C)CCC(CN2CCN(c3ccc(C(=O)NS(=O)(=O)c4ccc(NCC5(F)CCOCC5)c([N+](=O)[O-])c4)c(Oc4cnc5[nH]ccc5c4)c3)CC2)=C(C23CC(C(F)(F)F)(C2)C3)C1` [Example 30, 2-((1H-pyrrolo[2,3-b]pyridin-5-yl)oxy)-4-(4-((4,4-dimethyl-2-(3-(trifluoromethyl)bicyclo[1.1.1]pentan-1-yl)cyclohex-1l-en-1-yl)methyl)piperazin-1-yl)-N-((4-(((4-fluorotetrahydro-2H-pyran-4-yl)methyl)amino)-3-nitrophenyl)sulfonyl)benzamide], for which, in the test on RS4;11 cells, the IC50 is < 100 nM. Further, the figures for the Kd at Bcl-XL [1] and on Bcl-2 [2] were > 100 nM and < 10 nM, respectively.

`CC1(C)CCC(CN2CCN(c3ccc(C(=O)NS(=O)(=O)c4ccc(OCC5(F)CCOCC5)c([N+](=O)[O-])c4)c(Oc4cnc5[nH]ccc5c4)c3)CC2)=C(C23CC(C(F)(F)F)(C2)C3)C1` [Example 31, 2-((1H-pyrrolo[2,3-b]pyridin-5-yl)oxy)-4-(4-((4,4-dimethyl-2-(3-(trifluoromethyl)bicyclo[1.1.1]pentan-1-yl)cyclohex-1-en-1-yl)methyl)piperazin-1-yl)-N-((4-((4-fluorotetrahydro-2H-pyran-4-yl)methoxy)-3-nitrophenyl)sulfonyl)benzamide]: the IC50 with RS4;11 cells was < 100 nM. Moreover, the Kd on Bcl-XL [1] was > 100 nM; at Bcl-2 [2], < 10 nM.

For the molecule `CC1(C)CCC(CN2CCN(c3ccc(C(=O)NS(=O)(=O)c4ccc(NC[C@H]5CC[C@](C)(O)CC5)c([N+](=O)[O-])c4)c(Oc4cnc5[nH]ccc5c4)c3)CC2)=C(C23CC(C(F)(F)F)(C2)C3)C1` [Example 32, 2-((1H-pyrrolo[2,3-b]pyridin-5-yl)oxy)-4-(4-((4,4-dimethyl-2-(3-(trifluoromethyl)bicyclo[1.1.1]pentan-1-yl)cyclohex-1-en-1-yl)methyl)piperazin-1-yl)-N-((4-((((1r,4r)-4-hydroxy-4-methylcyclohexyl)methyl)amino)-3-nitrophenyl)sulfonyl)benzamide], the IC50 with RS4;11 cells is < 100 nM. In addition, the figures for the Kd at Bcl-XL [1] and on Bcl-2 [2] were > 100 nM and < 10 nM, respectively.

`CC1(C)CCC(CN2CCN(c3ccc(C(=O)NS(=O)(=O)c4ccc(NCC5CCOCC5)c([N+](=O)[O-])c4)c(Oc4cnc5[nH]ccc5c4)c3)CC2)=C(C23CC(C(F)F)(C2)C3)C1` [Example 33, 2-((1H-pyrrolo[2,3-b]pyridin-5-yl)oxy)-4-(4-((2-(3-(difluoromethyl)bicyclo[1.1.1]pentan-1-yl)-4,4-dimethylcyclohex-1-en-1-yl)methyl)piperazin-1-yl)-N-((3-nitro-4-(((tetrahydro-2H-pyran-4-yl)methyl)amino)phenyl)sulfonyl)benzamide]: in the test on RS4;11 cells, the IC50 was < 100 nM. The values for the Kd on Bcl-XL [1] and at Bcl-2 [2] were > 100 nM and < 10 nM, respectively.

As for `CC1(C)CCC(CN2CCN(c3ccc(C(=O)NS(=O)(=O)c4ccc(NCC5(F)CCOCC5)c([N+](=O)[O-])c4)c(Oc4cnc5[nH]ccc5c4)c3)CC2)=C(C23CC(C(F)F)(C2)C3)C1` [Example 35, 2-((1H-pyrrolo[2,3-b]pyridin-5-yl)oxy)-4-(4-((2-(3-(difluoromethyl)bicyclo[1.1.1]pentan-1-yl)-4,4-dimethylcyclohex-1-en-1-yl)methyl)piperazin-1-yl)-N-((4-(((4-fluorotetrahydro-2H-pyran-4-yl)methyl)amino)-3-nitrophenyl)sulfonyl)benzamide], the IC50 with RS4;11 cells was < 100 nM. The results for the Kd on Bcl-XL [1] and at Bcl-2 [2] were > 100 nM and < 10 nM, respectively.

For `CC1(C)CCC(CN2CCN(c3ccc(C(=O)NS(=O)(=O)c4ccc(OCC5(F)CCOCC5)c([N+](=O)[O-])c4)c(Oc4cnc5[nH]ccc5c4)c3)CC2)=C(C23CC(C(F)F)(C2)C3)C1` [Example 36, 2-((1H-pyrrolo[2,3-b]pyridin-5-yl)oxy)-4-(4-((2-(3-(difluoromethyl)bicyclo[1.1.1]pentan-1-yl)-4,4-dimethylcyclohex-1-en-1-yl)methyl)piperazin-1-yl)-N-((4-((4-fluorotetrahydro-2H-pyran-4-yl)methoxy)-3-nitrophenyl)sulfonyl)benzamide], the IC50 in the test with RS4;11 cells was < 100 nM. Also, the Kd was 10 to 100 nM on Bcl-XL [1] and < 10 nM at Bcl-2 [2].

Consider `CN1CCC(F)(CNc2ccc(S(=O)(=O)NC(=O)c3ccc(N4CCN(CC5=C(C67CC(C(F)F)(C6)C7)CC(C)(C)CC5)CC4)cc3Oc3cnc4[nH]ccc4c3)cc2[N+](=O)[O-])CC1` [Example 38, 2-((1H-pyrrolo[2,3-b]pyridin-5-yl)oxy)-4-(4-((2-(3-(difluoromethyl)bicyclo[1.1.1]pentan-1-yl)-4,4-dimethylcyclohex-1-en-1-yl)methyl)piperazin-1-yl)-N-((4-(((4-fluoro-1-methylpiperidin-4-yl)methyl)amino)-3-nitrophenyl)sulfonyl)benzamide], for which the IC50 in the test with RS4;11 cells was < 100 nM. Moreover, the Kd at Bcl-XL [1] was 10 to 100 nM; on Bcl-2 [2], < 10 nM.

As to `CC(C)C12CC(C3=C(CN4CCN(c5ccc(C(=O)NS(=O)(=O)c6ccc(NCC7CCOCC7)c([N+](=O)[O-])c6)c(Oc6cnc7[nH]ccc7c6)c5)CC4)CCC(C)(C)C3)(C1)C2` [Example 39, 2-((1H-pyrrolo[2,3-b]pyridin-5-yl)oxy)-4-(4-((2-(3-isopropylbicyclo[0.1.1]pentan-1-yl)-4,4-dimethylcyclohex-1-en-1-yl)methyl)piperazin-1-yl)-N-((3-nitro-4-(((tetrahydro-2H-pyran-4-yl)methyl)amino)phenyl)sulfonyl)benzamide], the IC50 in the test on RS4;11 cells is < 100 nM. For the same molecule, the figures for the Kd on Bcl-XL [1] and at Bcl-2 [2] were > 100 nM and 10 to 100 nM, respectively.

With `CC1(C)CCC(CN2CCN(c3ccc(C(=O)NS(=O)(=O)c4ccc(NCC5CCOCC5)c([N+](=O)[O-])c4)c(Oc4cnc5[nH]ccc5c4)c3)CC2)=C(C23CC(C(C)(F)F)(C2)C3)C1` [Example 40, 2-(1H-pyrrolo[2,3-b]pyridin-5-yloxy)-4-(4-((2-(3-(1,1-difluoroethyl)bicyclo[1.1.1]pentan-1-yl)-4,4-dimethylcyclohex-1-enyl)methyl)piperazin-1-yl)-N-(3-nitro-4-((tetrahydro-2H-pyran-4-yl)methylamino)phenylsulfonyl)benzamide], in the test with RS4;11 cells, the IC50 was < 100 nM. Besides, the figures for the Kd on Bcl-XL [1] and at Bcl-2 [2] were > 100 nM and < 10 nM, respectively.

For `CC1(C)CCC(C23CC(Cl)(C2)C3)=C(CN2CCN(c3ccc(C(=O)NS(=O)(=O)c4ccc(N[C@H](CCN5CCC(O)CC5)CSc5ccccc5)c(S(=O)(=O)C(F)(F)F)c4)cc3)CC2)C1` [Example 46], the values for the IC50 with RS4;11 cells, at Bcl-XL [3] and at Bcl-2 [4] were 100 to 1000 nM, ≤ 10 nM and ≤ 10 nM, respectively.

`CC1(C)CCC(C23CC(C)(C2)C3)=C(CN2CCN(c3ccc(C(=O)NS(=O)(=O)c4ccc(N[C@H](CCN5CCOCC5)CSc5ccccc5)c(S(=O)(=O)C(F)(F)F)c4)cc3)CC2)C1` [Example 47, (R)-4-(4-((5,5-Dimethyl-2-(3-methylbicyclo[1.1.1]pentan-1-yl)cyclohex-1-enyl)methyl)piperazin-1-yl)-N-(4-(4-morpholino-1-(phenylthio)butan-2-ylamino)-3-(trifluoromethylsulfonyl)phenylsulfonyl)benzamide]: the IC50 in the test on RS4;11 cells was > 1000 nM. The figures for the Kd at Bcl-XL [1] and on Bcl-2 [2] were 10 to 100 nM and > 100 nM, respectively.
